Assay results taken from the supplement of paper PMC10307832.

Assays:
Test in all cases: relative viability (nuclei count vs DMSO), 5 days (fraction); higher = more cells survive
[1] = compound: O=C1NC(=O)[C@@H](c2cn3c4c(cccc24)CCC3)[C@@H]1c1c[nH]c2ccccc12 [Tivantinib] + O=C(c1cc(Cc2n[nH]c(=O)c3ccccc23)ccc1F)N1CCN(C(=O)C2CC2)CC1 [Olaparib] (partner 8 µM)
Summary of the method: (§1)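 Lung cancer cell lines were pin-tool dosed in 1536-well plates on the day after seeding, with either a lone drug or a fixed anchor-drug dose plus five library-drug doses (not always all listed) in √10 steps. Nuclei were counted on 4× images after 5 days. Relative viability is the ratio of treated-well to vehicle-well nuclei counts, with each value a median of duplicate plates.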

[2] = compound: O=C1NC(=O)[C@@H](c2cn3c4c(cccc24)CCC3)[C@@H]1c1c[nH]c2ccccc12 [Tivantinib] + Cc1cc(Nc2cc(N3CCN(C)CC3)nc(Sc3ccc(NC(=O)C4CC4)cc3)n2)n[nH]1 [Tozasertib] (partner 0.1 µM)
Summary of the method: as §1

[3] = compound: O=C1NC(=O)[C@@H](c2cn3c4c(cccc24)CCC3)[C@@H]1c1c[nH]c2ccccc12 [Tivantinib] + CCNC(=O)c1noc(-c2cc(C(C)C)c(O)cc2O)c1-c1ccc(CN2CCOCC2)cc1 [Luminespib] (partner 0.01 µM)
Summary of the method: as §1

[4] = compound: CC1(COc2ccc3c(c2)ncn3-c2ccc3cccc(N4CCC(N)CC4)c3n2)COC1 [Crenolanib] + O=C(CCCCCCC(=O)Nc1ccccc1)NO [Vorinostat] (partner 1 µM)
Summary of the method: as §1

Cell Line	relative viability ([1]; first compound 0.01 µM)	relative viability ([1]; first compound 0.03162 µM)	relative viability ([1]; first compound 0.1 µM)	relative viability ([1]; first compound 0.3162 µM)	relative viability ([2]; first compound 0.01 µM)	relative viability ([2]; first compound 0.03162 µM)	relative viability ([2]; first compound 0.1 µM)	relative viability ([2]; first compound 0.3162 µM)	relative viability ([3]; first compound 0.01 µM)	relative viability ([3]; first compound 0.03162 µM)	relative viability ([3]; first compound 0.1 µM)	relative viability ([3]; first compound 0.3162 µM)	relative viability ([4]; first compound 0.01 µM)	relative viability ([4]; first compound 0.03162 µM)	relative viability ([4]; first compound 0.1 µM)	relative viability ([4]; first compound 0.3162 µM)	relative viability ([4]; first compound 1 µM)
LXF-289	1.02	1.05	1.01	1.02	0.176	0.129	0.202	0.204	0.757	0.646	0.599	0.723	0.734	0.798	0.712	0.723	0.637
ABC-1	0.875	1.17	0.626	0.955	0.209	0.155	0.215	0.223	0.43	0.944	0.339	0.675	0.991	0.679	1.13	1.17	0.934
NCI-H2170	0.558	0.658	0.507		0.771	0.619	0.749		0.527	0.594	0.672		0.793	0.928	0.697	0.985	0.793
NCI-H1355	0.807	0.742	0.726	0.64	0.561	0.488	0.541	0.489	0.787	0.687	0.726	0.723	0.661	0.674	0.626	0.706	0.481
EBC-1	0.708	0.681	0.781	0.711													
NCI-H2405	1.02	0.895	0.868	0.867	0.759	0.782	0.756	0.707	0.77	0.908	0.651	0.586	1.03		0.93	1.12	0.706
NCI-H2009	0.714	0.674	0.746	0.643	0.734	0.696	0.755	0.651	0.989	1.08	0.985	1.1	0.847	0.73	0.692	0.697	0.7
NCI-H441	0.482	0.552	0.58	0.744	0.587	0.655	0.552	0.474	0.343	0.359	0.27	0.337	0.98	0.705	0.657	1	0.832
PC-14	0.238	0.305	0.228	0.26	0.635	0.558	0.594	0.379		0.152	0.152	0.15	0.95	0.678	0.704	0.875	0.633
HCC-15	0.725	0.756	0.643	0.917	0.463	0.442	0.409	0.335	0.246	0.285	0.456	0.289	0.954	0.888	0.844	0.877	0.775
NCI-H2126	0.94	0.933	0.881	0.813	0.91	0.785	0.831	0.538	0.978	0.886	0.884	0.745	0.8	0.836	0.691	0.815	0.684
NCI-H1563									0.52	0.517	0.478	0.534					
NCI-H2342	0.513	0.423	0.392	0.282	0.556	0.51	0.51	0.394	0.741	0.739	0.716	0.598	0.729	0.682	0.688	0.788	0.691
NCI-H1915	0.262	0.227	0.244	0.239	0.427	0.412	0.422	0.391	0.883	0.775	0.722	0.765	0.529	0.516	0.487	0.511	0.459
ChaGo-K-1	0.401	0.41	0.409	0.398	0.205	0.219	0.218	0.218	0.679	0.539	0.576	0.597	0.721	0.81	0.724	0.745	0.793
NCI-H661	0.742	0.744	0.706	0.699	0.365	0.363	0.354	0.356	0.936	0.93	0.954	0.799	0.772	0.778	0.813	0.845	0.846
COR-L23	0.339	0.417	0.328	0.326	0.185	0.188	0.184	0.234	0.625	0.685	0.661	0.757	0.553	0.559	0.394	0.5	0.476
COR-L 105	0.739	0.665	0.729	0.585	0.32	0.414	0.397	0.383	0.708	0.835	0.873	0.742	0.842	0.957	0.904	1.08	0.922
HCC-78	0.99	0.767	0.709	0.62	0.443	0.437	0.405	0.277					0.441	0.424	0.493	0.433	0.386
A549	0.204	0.253	0.301	0.214													
NCI-H1299	0.941	0.933	1.01	0.93													
NCI-H1792	0.406		0.406	0.3					0.479	0.323	0.338	0.391					
IA-LM	0.907		0.789	0.809									1.06	0.971	0.956	0.905	0.678
NCI-H1648		0.889	0.611	0.528	0.71	0.385	0.425						0.599		0.293	0.466	0.433
